Among the data in US20180250221A1, “GARDENIA EXTRACT FOR COLOURING THE SKIN” (PIERRE FABRE MEDICAMENT, priority 2015, published 2018) are colouring strength values, retold here.

This test deals with human skin explants. As to the kind of experiment: Colouring effect on human skin explants under survival conditions (ex vivo model). It counts as cell-based. The conditions noted are these: 72 hours, C-Cube Dermoscope colorimetric differences, four donors. As to the method:
Owing to the lack of cell and animal pharmacological models, the inventors developed an ex vivo model in order to overcome the difficulties related to absorption of the active agents. Indeed, there is no absorption of crocin without intestinal hydrolysis first and low assimilation of crocetin and of these derivatives after passage.
The objective of this study was to evaluate the colouring effect of various extracts applied to human skin explants under survival conditions over 72 hours. Maintenance under survival conditions is carried out in 6-well culture plates containing culture medium. These culture plates are placed in an incubator at 37° C. with 5% CO2. The studies were carried out on four donors.
The colouring of each medium containing active agents or control is evaluated with the C-Cube Dermoscope (Clinical Edition) from Pixience SAS. The evaluation concerns the maximum colouring which can be obtained, i.e., the 100% level on the colour mapping scale relating to each active agent. The colouring of each explant is measured using the C-Cube Dermoscope (Clinical Edition). First, the explant is placed in a solution of medium with no active agent in order to rinse the explant of the active agent molecules present on the explant surface and which have not penetrated the skin. […]

For `CC(/C=C/C=C(\C)C(=O)O)=C\C=C\C=C(C)\C=C\C=C(/C)C(=O)O` [crocetin], the colouring strength result is reported as “high colouring strength”.
